Results on 25 molecules are retold here after patent US9096599B2, “Spiroindoline compounds” (Intervet Inc., priority 2011, dated 2015).

Molecules are shown by their SMILES.

One assay relates to Ascaridia galli (L3) and Oesophagostumum dentatum (L3 and L4) larvae. Kind of assay: In vitro anthelmintic larval test, minimum effective concentration by microscopic examination. The assay is classed as cell-based. The note with it: activity against one or both of the nematodes (A. galli L3; O. dentatum L3, L4), 96-well plates, 20 larvae per well, vs DMSO-control, read-out: minimum effective concentration (MEC). The protocol: C: Biological Examples Efficacy Against Ascaridia galli and Oesophagostomum dentatum
Anthelmintic effects of compounds of this invention (numbers refer to compound numbers in Table I) were tested in vitro using gut-welling larval stages of two parasitic nematode species: Ascaridia galli (intestinal roundworm of chicken), larval stage 3 (“L3”); and Oesophagostumum dentatum (nodular worm of swine), larval stages 3 and 4 (respectively “L3” and “L4”). When conducting these experiments, DMSO-solutions of various concentrations of compounds of this invention were prepared and incubated in 96-well microtiter plates. The parasites were then distributed at 20 larvae per well. The anthelmintic effects were classified by microscopic examination. The microscopic examination included assessing mortality, damage, motility, progression of development, and neutral red uptake by the larvae in comparison to a DMSO-control.
With `Cc1cc(C(=O)N2CC3(CCN(C/C=C/c4ccc(F)cc4)CC3)c3cc(Sc4ccc(F)cc4)ccc32)cc(Cl)n1` [Compound 36, (2-chloro-6-methyl-4-pyridyl)-[1′-[(E)-3-(4-fluorophenyl)allyl]-5-(4-fluorophenyl)sulfanyl-spiro[indoline-3,4′-piperidine]-1-yl]methanone], the minimal effective concentration is at most 50 µM.
Turning to `Cc1cc(C(=O)N2CC3(CCN(C/C=C/c4ccc(F)cc4)CC3)c3cc(Sc4ccc(F)cc4)ccc32)ccn1` [Compound 37, [1′-[(E)-3-(4-fluorophenyl)allyl]-5-(4-fluorophenyl)sulfanyl-spiro[indoline-3,4′-piperidine]-1-yl]-(2-methyl-4-pyridyl)methanone], the minimal effective concentration is at most 50 µM.
Regarding `Cc1cc(C(=O)N2CC3(CCN(C/C=C/c4ccc(Cl)cc4)CC3)c3cc(Sc4ccc(F)cc4)ccc32)cc(Cl)n1` [Compound 27, (2-chloro-6-methyl-4-pyridyl)-[1′-[(E)-3-(4-chlorophenyl)allyl]-5-(4-fluorophenyl)sulfanyl-spiro[indoline-3,4′-piperidine]-1-yl]methanone], the minimal effective concentration is at most 50 µM.
Consider `Cc1ccc(/C=C/CN2CCC3(CC2)CN(C(=O)c2ccnc(Cl)c2)c2ccc(Sc4ccc(F)cc4)cc23)cc1` [Compound 17, (2-chloro-4-pyridyl)-[5-(4-fluorophenyl)sulfanyl-1′-[(E)-3-(p-tolyl)allyl]spiro[indoline-3,4′-piperidine]-1-yl]methanone], for which the minimal effective concentration was at most 50 µM.
Same read-out and setting: under `Cc1cc(C(=O)N2CC3(CCN(C/C=C/c4ccc(C)c(C)c4)CC3)c3cc(Sc4ccc(F)cc4)ccc32)ccn1` [Compound 16, [1′-[(E)-3-(3,4-dimethylphenyl)allyl]-5-(4-fluorophenyl)sulfanyl-spiro[indoline-3,4′-piperidine]-1-yl]-(2-methyl-4-pyridyl)methanone] stands at most 50 µM; under `Cc1cc(C(=O)N2CC3(CCN(C/C=C/c4ccc(F)cc4F)CC3)c3cc(Sc4ccc(F)cc4)ccc32)cc(Cl)n1` [Compound 39, (2-chloro-6-methyl-4-pyridyl)-[1′-[(E)-3-(2,4-difluorophenyl)allyl]-5-(4-fluorophenyl)sulfanyl-spiro[indoline-3,4′-piperidine]-1-yl]methanone], at most 50 µM.
Same read-out and setting: the value for `Cc1cc(C(=O)N2CC3(CCN(C/C=C/c4ccc(Cl)c(Cl)c4)CC3)c3cc(Sc4ccc(F)cc4)ccc32)cc(Cl)n1` [Compound 24, (2-chloro-6-methyl-4-pyridyl)-[1′-[(E)-3-(3,4-dichlorophenyl)allyl]-5-(4-fluorophenyl)sulfanyl-spiro[indoline-3,4′-piperidine]-1-yl]methanone] was at most 50 µM.
As to `Cc1ccc(/C=C/CN2CCC3(CC2)CN(C(=O)c2ccnc(Cl)c2)c2ccc(Sc4ccc(F)cc4)cc23)cc1C` [Compound 14, (2-chloro-4-pyridyl)-[1′-[(E)-3-(3,4-dimethylphenyl)allyl]-5-(4-fluorophenyl)sulfanyl-spiro[indoline-3,4′-piperidine]-1-yl]methanone], the minimal effective concentration is at most 50 µM.
Turning to `O=C(c1ccnc(Cl)c1)N1CC2(CCN(C/C=C/c3ccc(Cl)c(Cl)c3)CC2)c2cc(Sc3ccc(F)cc3)ccc21` [Compound 23, (2-chloro-4-pyridyl)-[1′-[(E)-3-(3,4-dichlorophenyl)allyl]-5-(4-fluorophenyl)sulfanyl-spiro[indoline-3,4′-piperidine]-1-yl]methanone], the minimal effective concentration was at most 50 µM.
As for `O=C(c1ccnc(Cl)c1)N1CC2(CCN(C/C=C/c3ccc(F)cc3)CC2)c2cc(Sc3ccc(F)cc3)ccc21` [Compound 35, (2-chloro-4-pyridyl)-[1′-[(E)-3-(4-fluorophenyl)allyl]-5-(4-fluorophenyl)sulfanyl-spiro[indoline-3,4′-piperidine]-1-yl]methanone], the minimal effective concentration was at most 50 µM.
Same read-out and setting: under `O=C(c1ccnc(Cl)c1)N1CC2(CCN(C/C=C/c3ccc(F)c(F)c3)CC2)c2cc(Sc3ccc(F)cc3)ccc21` [Compound 32, (2-chloro-4-pyridyl)-[1′-[(E)-3-(3,4-difluorophenyl)allyl]-5-(4-fluorophenyl)sulfanyl-spiro[indoline-3,4′-piperidine]-1-yl]methanone] stands at most 50 µM; under `Cc1ccc(/C=C/CN2CCC3(CC2)CN(C(=O)c2ccnc(Cl)c2)c2ccc(Sc4ccc(F)cc4)cc23)c(C)c1` [Compound 20, (2-chloro-4-pyridyl)-[1′-[(E)-3-(2,4-dimethylphenyl)allyl]-5-(4-fluorophenyl)sulfanyl-spiro[indoline-3,4′-piperidine]-1-yl]methanone], at most 50 µM.
Take `Cc1cc(C(=O)N2CC3(CCN(C/C=C/c4ccc(Cl)cc4Cl)CC3)c3cc(Sc4ccc(F)cc4)ccc32)ccn1` [Compound 31, [1′-[(E)-3-(2,4-dichlorophenyl)allyl]-5-(4-fluorophenyl)sulfanyl-spiro[indoline-3,4′-piperidine]-1-yl]-(2-methyl-4-pyridyl)methanone]: the minimal effective concentration was at most 50 µM.
Still for that read-out and setting: under `Cc1cc(C(=O)N2CC3(CCN(C/C=C/c4ccc(F)c(F)c4)CC3)c3cc(Sc4ccc(F)cc4)ccc32)ccn1` [Compound 34, [1′-[(E)-3-(3,4-difluorophenyl)allyl]-5-(4-fluorophenyl)sulfanyl-spiro[indoline-3,4′-piperidine]-1-yl]-(2-methyl-4-pyridyl)methanone] stands at most 50 µM.
On the same count and under the same terms, under `Cc1cc(C(=O)N2CC3(CCN(C/C=C/c4ccc(C)c(C)c4)CC3)c3cc(Sc4ccc(F)cc4)ccc32)cc(Cl)n1` [Compound 15, (2-chloro-6-methyl-4-pyridyl)-[1′-[(E)-3-(3,4-dimethylphenyl)allyl]-5-(4-fluorophenyl)sulfanyl-spiro[indoline-3,4′-piperidine]-1-yl]methanone] stands at most 50 µM; under `O=C(c1ccnc(Cl)c1)N1CC2(CCN(C/C=C/c3ccc(Cl)cc3Cl)CC2)c2cc(Sc3ccc(F)cc3)ccc21` [Compound 29, (2-chloro-4-pyridyl)-[1′-[(E)-3-(2,4-dichlorophenyl)allyl]-5-(4-fluorophenyl)sulfanyl-spiro[indoline-3,4′-piperidine]-1-yl]methanone], at most 50 µM.
Turning to `Cc1ccc(/C=C/CN2CCC3(CC2)CN(C(=O)c2ccnc(C)c2)c2ccc(Sc4ccc(F)cc4)cc23)cc1` [Compound 19, [5-(4-fluorophenyl)sulfanyl-1′-[(E)-3-(p-tolyl)allyl]spiro[indoline-3,4′-piperidine]-1-yl]-(2-methyl-4-pyridyl)methanone], the minimal effective concentration is at most 50 µM.
Regarding `Cc1cc(C(=O)N2CC3(CCN(C/C=C/c4ccc(Cl)c(Cl)c4)CC3)c3cc(Sc4ccc(F)cc4)ccc32)ccn1` [Compound 25, [1′-[(E)-3-(3,4-dichlorophenyl)allyl]-5-(4-fluorophenyl)sulfanyl-spiro[indoline-3,4′-piperidine]-1-yl]-(2-methyl-4-pyridyl)methanone], the minimal effective concentration was at most 50 µM.
On the same count and under the same terms, the value for `Cc1ccc(/C=C/CN2CCC3(CC2)CN(C(=O)c2cc(C)nc(Cl)c2)c2ccc(Sc4ccc(F)cc4)cc23)cc1` [Compound 18, (2-chloro-6-methyl-4-pyridyl)-[5-(4-fluorophenyl)sulfanyl-1′-[(E)-3-(p-tolyl)allyl]spiro[indoline-3,4′-piperidine]-1-yl]methanone] was at most 50 µM; that for `Cc1cc(C(=O)N2CC3(CCN(C/C=C/c4ccc(F)c(F)c4)CC3)c3cc(Sc4ccc(F)cc4)ccc32)cc(Cl)n1` [Compound 33, (2-chloro-6-methyl-4-pyridyl)-[1′-[(E)-3-(3,4-difluorophenyl)allyl]-5-(4-fluorophenyl)sulfanyl-spiro[indoline-3,4′-piperidine]-1-yl]methanone] was at most 50 µM.
Still for that read-out and setting: the value for `Cc1ccc(/C=C/CN2CCC3(CC2)CN(C(=O)c2cc(C)nc(Cl)c2)c2ccc(Sc4ccc(F)cc4)cc23)c(C)c1` [Compound 21, (2-chloro-6-methyl-4-pyridyl)-[1′-[(E)-3-(2,4-dimethylphenyl)allyl]-5-(4-fluorophenyl)sulfanyl-spiro[indoline-3,4′-piperidine]-1-yl]methanone] was at most 50 µM.
On the same count and under the same terms, the value for `Cc1cc(C(=O)N2CC3(CCN(C/C=C/c4ccc(Cl)cc4)CC3)c3cc(Sc4ccc(F)cc4)ccc32)ccn1` [Compound 28, [1′-[(E)-3-(4-chlorophenyl)allyl]-5-(4-fluorophenyl)sulfanyl-spiro[indoline-3,4′-piperidine]-1-yl]-(2-methyl-4-pyridyl)methanone] was at most 50 µM.

The assay is the same for the next values; noted with them: read-out: minimum effective concentration (MEC).
Consider `Cc1cc(C(=O)N2CC3(CCN(C/C=C/c4ccccc4)CC3)c3cc(Sc4ccc(F)cc4)ccc32)cc(Cl)n1` [Compound 12, (2-chloro-6-methyl-4-pyridyl)-[1′-[(E) -cinnamyl]-5-(4-fluorophenyl)sulfanyl-spiro[indoline-3,4′-piperidine]-1-yl]methanone], for which the minimal effective concentration was at most 50 µM.
Same read-out and setting: the value for `Cc1cc(C(=O)N2CC3(CCN(C/C=C/c4ccccc4)CC3)c3cc(Sc4ccc(F)cc4)ccc32)ccn1` [Compound 13, [1′-[(E)-cinnamyl]-5-(4-fluorophenyl)sulfanyl-spiro[indoline-3,4′-piperidine]-1-yl]-(2-methyl-4-pyridyl)methanone] was at most 50 µM; that for `O=C(c1ccnc(Cl)c1)N1CC2(CCN(C/C=C/c3ccccc3)CC2)c2cc(Sc3ccc(F)cc3)ccc21` [Compound 11, (2-chloro-4-pyridyl)-[1′-[(E)-cinnamyl]-5-(4-fluorophenyl)sulfanyl-spiro[indoline-3,4′-piperidine]-1-yl]methanone] was at most 50 µM.
